Results taken from patent US4560748A, “Streptothricin-group compounds” (Ajinomoto Company Incorporated, priority 1982, dated 1985).
In brackets after ≈: the same amount, converted by molar mass.

Legend:
ED50 on normal cells 3T3 = format: cell-based; conditions: mouse; normal 3T3 cells; 2 days; read-out: ED50 33T3(N)
Protocol: (§1) Normal cells, 3T3 and SV-40-transformed 3T3 cells, (SV3T3) were cultured in Eagle's minimal essential medium supplemented with 10% calf serum, 5 μg/ml of cefazoline and 100 μg/ml of streptomycin at the initial cell concentration of 4×10^4 cells/2 cm^2 for 3T3 and 2×10^4 cells/2 cm^2 for SV3T3 at 37° C. in 7% CO2 incubator. After one day of cultivation old medium was removed from tissue culture plate and various concentrations of drug diluted with new medium were added to the Falcon tissue culture plate. After 2 days of cultivation, the cell density was measured and the value of ED50 was determined. N/T ratio was calculated from ED50 value of normal cell, 3T3, to transformed cell, SV3T3.

Escherichia coli MP-2 = assay: Antimicrobial activity (MIC), broth culture; format: cell-based; conditions: MP2, 37° C., 20 hours
Protocol: AN-201(I) and (II) can be assayed by determining anti-microbial activity to E. coli MP-2 (FERM-P 5432) (Agric. Biol. Chem., 43, 371, (1979)), which has permeability for high molecular compounds.
(§2) Two ml portions of M3 -Medium (Bactoantibiotic Medium--Difico, 1.75%, pH 7.2) were placed into test tubes and heated at 120° C. for 10 minutes. Each test strain in Table 1 was inoculated into a batch of culture medium, and the inoculated batches were cultured with shaking at 30° C. for 20 hours to obtain seed culture broths. A 0.05 ml sample of each culture broth was inoculated into 20 ml of M3 -Medium containing […] or (II). The inoculates were cultured at 37° C. for 20 hours with shaking. Thereafter, the optical density of each resultant culture broth at 660 nm was determined, and the minimum inhibition concentration (MIC) of each broth was calculated, and is shown in Table 1.

SV3T3 = assay: ED50 on SV-40-transformed 3T3 cells and selective cytotoxic effect; format: cell-based, mouse; conditions: for Cytotoxicity compared with BLM: 3T3 cell transformed with SV-40; for Selective cytotoxic effect (N/T ratio): ED50 of normal cell 3T3 to transformed cell SV3T3, 2880 min; for IC50: Mus musculus, SV3T3, 48 h, SV-40-transformed 3T3 cells, 2 days, read-out: ED50 SV3T3(T); for Antitumor activity (selective cytotoxicity): against 3T3 cell transformed with SV-40
Protocol: as §1

[1] = test system: Pseudomonas aeruginosa ATCC 10145; assay: Antimicrobial activity (MIC), broth culture; format: cell-based; conditions: ATCC10145, 37° C., 20 hours
Protocol: as §2

[2] = test system: Escherichia coli K-12 ATCC 10798; assay: Antimicrobial activity (MIC), broth culture; format: cell-based; conditions: ATCC10798, 37° C., 20 hours
Protocol: as §2

[3] = test system: Bacillus subtilis ATCC 6633; assay: Antimicrobial activity (MIC), broth culture; format: cell-based; conditions: for MIC: ATCC6633, Bacillus subtilis ATCC 6633, 37° C., 20 hours; for Antimicrobial activity: against Bacillus subtilis ATCC 6633
Protocol: as §2

Sarcina lutia ATCC 93412 = assay: Antimicrobial activity (MIC), broth culture; format: cell-based; conditions: for MIC: Sarcina, ATCC93412, 20 h; for Antimicrobial activity: against Sarchina lutea ATCC 9341
Protocol: as §2

[4] = test system: Staphylococcus aureus FDA 209 P; assay: Antimicrobial activity (MIC), broth culture; format: cell-based; conditions: for MIC: FDA209, Staphylococcus aureus FDA 209 P, 37° C., 20 hours; for Antimicrobial activity: against Streptococcus aureus FDA 209P
Protocol: as §2

[5] = test system: mouse fibroblast cell 3T3 transformed with Semian virus-40 (SV 3T3); assay: Number of injured cells, SV 3T3 (transformed with Semian virus-40); format: cell-based; set-up: key: -: none of the cells injured; +: half of the cells injured; ++: about 2/3 of the cells injured; +++: almost all of the cells injured; conditions: 3 days
Protocol: (§3) MEM Uldecco powder (DAI-NIPPON SEIYAKU) (13.45 g) was dissolved in 1 l of distilled water and 2 ml of 7.5% NaHCO3 solution was added to the solution. Then the solution was filtered through a Millipore filter (pore size: 0.22μ) and supplemented with 100 ml of germ-free blood serum. Into a micro test plate (Falcon), 0.15 ml portions of the culture medium thus prepared were placed. Then a 0.05 ml culture sample of previously cultured mouse fibroblast cell 3T3 or mouse fibroblast cell 3T3 transformed with Semian virus-40 (SV 3T3) was inoculated into each portion of the culture medium. Thereafter, the inoculated media were incubated in a CO2 gas incubator (concentration of CO2 gas: 7.0%) at 37° C. for 24 hours. Into the media AN-201(I) or (II) was added to contain 20 μg/ml, 40 μg/ml, 50 μg/ml or 60 μg/ml, and additional cultivation was carried out for 3 days. Number of injured cell in each medium was counted with an invert microscope using a Thama hematometer.

[6] = test system: mouse fibroblast cell 3T3; assay: Number of injured cells, mouse fibroblast 3T3; format: cell-based; set-up: key: -: none of the cells injured; +: half of the cells injured; ++: about 2/3 of the cells injured; +++: almost all of the cells injured; conditions: 3 days
Protocol: as §3

[7] = test system: mouse leukemia L 1210 cells; assay: Effect on L 1210 cell (relative multiplication number); format: cell-based; conditions: L1210, 120 h, 5 days, 0 μg/ml = 100; for activity at 10 µg/mL: 10 μg/ml; for activity at 20 µg/mL: 20 μg/ml; for activity at 40 µg/mL: 40 μg/ml; for activity at 50 µg/mL: 50 μg/ml; for activity at 60 µg/mL: 60 μg/ml
Protocol: A 10.28 g sample of RPMI 1640 powder medium (DAI-NIPPON SEIYAKU) was dissolved into 1.0 liter distilled water and 1.0 g NaHCO3 was added to it. Then the solution was filtered through a Millipore filter (pore size: 0.22μ) and supplemented with 100 ml of germ-free blood serum. One ml portions of the culture medium thus prepared were placed into Falcon Multi Well aseptically. Then a 0.05 ml culture sample of mouse leukemia L 1210 cells previously cultured was inoculated into each batch of the culture medium, and a definite amount of purified AN-201(I) or (II) dissolved in the same medium was added simultaneously to the culture medium. Thereafter, the inoculated media were incubated in a CO2 gas incubator (concentration of CO2 gas: 7.0%) at […]. After 5 days incubation, the numbers of multiplied cells were counted under a microscope and the relative multiplication numbers obtained are shown in Table 4.

LEWIS lung carcinoma [8] = assay: Effect on LEWIS lung carcinoma in BDF1 mice; format: in vivo, mouse; conditions: for Reduction of tumor size / I.L.S.: intraperitoneally daily for 1-10 days; for Antitumor activity: against LEWIS lung carcinoma in mouse; for I.L.S.: increase in life span; for Life prolongation effects compared with BLM: mouse suffered from LEWIS lung carcinoma
Protocol: LEWIS lung carcinoma (1 mm^3) was transplanted subcutaneously into BDF1 mice. After 24 hours of the transplantation, AN-201(I), (II) and BLM were intraperitoneally injected daily for 1-10 days. Antitumor activity was indicated with a reduction in tumor size or with a increase in life span.

LEWIS lung carcinoma [9] = conditions: reported for the known agent, cited from earlier work

| Molecule | CC50 at 48 h (ED50 on normal cells 3T3) [µg/mL] | MIC (Escherichia coli MP-2) [µg/mL] | Cytotoxicity compared with BLM (SV3T3) | Selective cytotoxic effect (N/T ratio) (SV3T3) | IC50 (SV3T3) [µg/mL] | Antitumor activity (selective cytotoxicity) (SV3T3) | MIC [1] [µg/mL] | MIC [2] [µg/mL] | MIC [3] [µg/mL] | Antimicrobial activity [3] | MIC (Sarcina lutia ATCC 93412) [µg/mL] | Antimicrobial activity (Sarcina lutia ATCC 93412) | MIC [4] [µg/mL] | Antimicrobial activity [4] | Number of Injured Cell ([5]; 20 μg/ml) | Number of Injured Cell ([5]; 40 μg/ml) | Number of Injured Cell ([5]; 50 μg/ml) | Number of Injured Cell ([5]; 60 μg/ml) | Number of Injured Cell ([6]; 20 μg/ml) | Number of Injured Cell ([6]; 40 μg/ml) | other results |
| --- | --- | --- | --- | --- | --- | --- | --- | --- | --- | --- | --- | --- | --- | --- | --- | --- | --- | --- | --- | --- | --- |
| CC(=O)NC(CCCNC(=O)CC(N)CCCN)CC(=O)NC1C(N=C2NC3C(=O)NCC(O)C3N2)OC(CO)C(OC(N)=O)C1O (centres unmarked) [AN-201(I)] | 55 (≈ 81.8 µM) | 20 (≈ 29.7 µM) | more strongly and selectively cytotoxic | 2.2 | 25 (≈ 37.2 µM) | cytotoxic selectively | > 50 | > 50 | 2.7 (≈ 4.01 µM) | positive | 5 (≈ 7.43 µM) | positive | 2 (≈ 2.97 µM) | positive | - | + | +++ | +++ | - | - | Number of Injured Cell ([6]; 50 μg/ml): +; Number of Injured Cell ([6]; 60 μg/ml): ++; activity at 10 µg/mL [7]: 100%; activity at 20 µg/mL [7]: 80%; activity at 40 µg/mL [7]: 30%; activity at 50 µg/mL [7]: 0%; activity at 60 µg/mL [7]: 0%; Reduction of tumor size (LEWIS lung carcinoma [8]; 9 mg/kg): 45-50%; Reduction of tumor size (LEWIS lung carcinoma [8]; 18 mg/kg): 50-65%; Antitumor activity (LEWIS lung carcinoma [8]): positive; I.L.S. (LEWIS lung carcinoma [8]; 9 mg/kg): 114-120%; I.L.S. (LEWIS lung carcinoma [8]; 18 mg/kg): 120-125%; Life prolongation effects compared with BLM (LEWIS lung carcinoma [8]): greater life prolongation effects |
| CC(=O)NC(CCCNC(=O)CC(N)CCCNC(=O)CC(N)CCCN)CC(=O)NC1C(N=C2NC3C(=O)NCC(O)C3N2)OC(CO)C(OC(N)=O)C1O (centres unmarked) [AN-201(II)] | 50 (≈ 62.4 µM) | 4 (≈ 4.99 µM) | more strongly and selectively cytotoxic | 3.3 | 15 (≈ 18.7 µM) | cytotoxic selectively | > 50 | > 50 | 1.5 (≈ 1.87 µM) | positive | 5 (≈ 6.24 µM) | positive | 2 (≈ 2.5 µM) | positive | - | + | +++ | +++ | - | - | Number of Injured Cell ([6]; 50 μg/ml): +; Number of Injured Cell ([6]; 60 μg/ml): ++; activity at 10 µg/mL [7]: 100%; activity at 20 µg/mL [7]: 80%; activity at 40 µg/mL [7]: 25%; activity at 50 µg/mL [7]: 0%; activity at 60 µg/mL [7]: 0%; Reduction of tumor size (LEWIS lung carcinoma [8]; 1 mg/kg): 50-57%; Reduction of tumor size (LEWIS lung carcinoma [8]; 3 mg/kg): 54-60%; Reduction of tumor size (LEWIS lung carcinoma [8]; 9 mg/kg): 74-85%; Antitumor activity (LEWIS lung carcinoma [8]): positive; I.L.S. (LEWIS lung carcinoma [8]; 1 mg/kg): 101-110%; I.L.S. (LEWIS lung carcinoma [8]; 3 mg/kg): 121-130%; I.L.S. (LEWIS lung carcinoma [8]; 9 mg/kg): 124-135%; Life prolongation effects compared with BLM (LEWIS lung carcinoma [8]): greater life prolongation effects |
| bleomycin [BLM, reference compound] |  |  |  |  |  |  |  |  |  |  |  |  |  |  |  |  |  |  |  |  | Antitumor activity (reported) (LEWIS lung carcinoma [9]; LEWIS lung carcinoma in mouse): notable antitumor activity; Chemotherapeutic coefficient (reported) (LEWIS lung carcinoma [9]): very high; Reduction of tumor size (LEWIS lung carcinoma [8]; 5 mg/kg): 52-60%; Reduction of tumor size (LEWIS lung carcinoma [8]; 10 mg/kg): 65-80%; I.L.S. (LEWIS lung carcinoma [8]; 5 mg/kg): 100-110%; I.L.S. (LEWIS lung carcinoma [8]; 10 mg/kg): 119-124% |
